Results: ChEMBL document CHEMBL5291721, “A preclinical secondary pharmacology resource illuminates target-adverse drug reaction associations of marketed drugs” (Nat Commun, 2023)

How the values were obtained:
[1] = molecular target: Sodium-dependent noradrenaline transporter (Homo sapiens, UniProt P23975)
[2] = molecular target: Prostaglandin G/H synthase 1 (Homo sapiens, UniProt P23219); format: functional
[3] = molecular target: T1, Amine oxidase [flavin-containing] A (Homo sapiens, UniProt P21397); format: functional
T1 sequence (P21397 whole entry): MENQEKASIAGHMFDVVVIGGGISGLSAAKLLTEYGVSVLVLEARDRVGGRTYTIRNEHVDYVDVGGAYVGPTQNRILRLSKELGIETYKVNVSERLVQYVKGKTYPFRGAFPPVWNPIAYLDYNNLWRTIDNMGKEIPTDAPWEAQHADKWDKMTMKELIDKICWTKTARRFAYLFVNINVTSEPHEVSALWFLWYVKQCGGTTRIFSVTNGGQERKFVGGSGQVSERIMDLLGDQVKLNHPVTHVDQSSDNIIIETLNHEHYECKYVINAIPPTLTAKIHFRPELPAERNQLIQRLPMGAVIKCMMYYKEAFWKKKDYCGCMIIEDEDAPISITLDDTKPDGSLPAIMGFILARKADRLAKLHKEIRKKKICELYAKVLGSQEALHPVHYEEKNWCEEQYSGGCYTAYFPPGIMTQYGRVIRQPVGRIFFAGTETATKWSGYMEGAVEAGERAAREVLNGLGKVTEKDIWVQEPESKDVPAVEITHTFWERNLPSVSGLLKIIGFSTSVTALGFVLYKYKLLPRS

Thromboxane A2 receptor = molecular target: T2, Thromboxane A2 receptor (Homo sapiens, UniProt P21731); format: functional, cell-based
T2 sequence (P21731 whole entry): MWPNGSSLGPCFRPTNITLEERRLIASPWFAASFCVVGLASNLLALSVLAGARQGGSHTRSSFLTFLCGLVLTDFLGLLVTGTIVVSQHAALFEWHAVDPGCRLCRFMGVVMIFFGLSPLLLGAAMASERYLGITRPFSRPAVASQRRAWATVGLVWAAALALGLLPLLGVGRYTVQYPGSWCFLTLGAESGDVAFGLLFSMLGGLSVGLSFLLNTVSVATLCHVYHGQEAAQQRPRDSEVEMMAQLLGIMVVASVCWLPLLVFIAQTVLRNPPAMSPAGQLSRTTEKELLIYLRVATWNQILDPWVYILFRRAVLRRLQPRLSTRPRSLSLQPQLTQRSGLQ

Histamine H3 receptor = Histamine H3 receptor (Homo sapiens, UniProt Q9Y5N1)
Sequence of Histamine H3 receptor (Q9Y5N1 whole entry): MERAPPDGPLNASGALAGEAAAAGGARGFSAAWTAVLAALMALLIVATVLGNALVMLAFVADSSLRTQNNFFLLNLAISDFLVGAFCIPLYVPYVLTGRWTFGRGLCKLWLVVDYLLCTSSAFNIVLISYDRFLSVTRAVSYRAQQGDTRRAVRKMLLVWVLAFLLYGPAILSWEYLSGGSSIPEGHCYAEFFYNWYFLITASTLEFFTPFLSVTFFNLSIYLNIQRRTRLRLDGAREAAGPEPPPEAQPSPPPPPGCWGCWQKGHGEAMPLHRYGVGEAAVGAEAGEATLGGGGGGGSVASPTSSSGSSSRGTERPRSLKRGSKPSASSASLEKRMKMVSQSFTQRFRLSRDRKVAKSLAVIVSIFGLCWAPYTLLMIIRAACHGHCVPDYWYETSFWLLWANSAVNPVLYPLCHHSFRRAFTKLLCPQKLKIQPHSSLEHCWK

Prothrombin = Prothrombin (Homo sapiens, UniProt P00734); format: functional
[4] = molecular target: Sodium-dependent dopamine transporter (Homo sapiens, UniProt Q01959)
Sequence of Sodium-dependent dopamine transporter (Q01959 whole entry): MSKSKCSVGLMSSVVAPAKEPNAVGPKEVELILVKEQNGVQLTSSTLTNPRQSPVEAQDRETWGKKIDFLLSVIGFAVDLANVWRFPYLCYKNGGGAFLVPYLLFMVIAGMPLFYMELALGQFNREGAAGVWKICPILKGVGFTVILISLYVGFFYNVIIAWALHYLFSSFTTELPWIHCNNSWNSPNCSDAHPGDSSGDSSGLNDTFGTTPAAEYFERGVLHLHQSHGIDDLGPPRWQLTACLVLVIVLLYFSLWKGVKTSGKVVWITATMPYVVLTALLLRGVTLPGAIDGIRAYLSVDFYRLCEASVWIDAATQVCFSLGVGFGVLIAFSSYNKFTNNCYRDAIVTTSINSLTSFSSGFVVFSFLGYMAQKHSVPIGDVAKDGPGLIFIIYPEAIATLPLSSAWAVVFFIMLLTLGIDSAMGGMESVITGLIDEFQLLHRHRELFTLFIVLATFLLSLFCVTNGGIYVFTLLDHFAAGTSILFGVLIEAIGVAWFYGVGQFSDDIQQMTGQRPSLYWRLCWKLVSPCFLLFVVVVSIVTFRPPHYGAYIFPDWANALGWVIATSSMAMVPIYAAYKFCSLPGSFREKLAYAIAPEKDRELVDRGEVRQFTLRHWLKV

D(1A) dopamine receptor = D(1A) dopamine receptor (Homo sapiens, UniProt P21728)
Sequence of D(1A) dopamine receptor (P21728 whole entry): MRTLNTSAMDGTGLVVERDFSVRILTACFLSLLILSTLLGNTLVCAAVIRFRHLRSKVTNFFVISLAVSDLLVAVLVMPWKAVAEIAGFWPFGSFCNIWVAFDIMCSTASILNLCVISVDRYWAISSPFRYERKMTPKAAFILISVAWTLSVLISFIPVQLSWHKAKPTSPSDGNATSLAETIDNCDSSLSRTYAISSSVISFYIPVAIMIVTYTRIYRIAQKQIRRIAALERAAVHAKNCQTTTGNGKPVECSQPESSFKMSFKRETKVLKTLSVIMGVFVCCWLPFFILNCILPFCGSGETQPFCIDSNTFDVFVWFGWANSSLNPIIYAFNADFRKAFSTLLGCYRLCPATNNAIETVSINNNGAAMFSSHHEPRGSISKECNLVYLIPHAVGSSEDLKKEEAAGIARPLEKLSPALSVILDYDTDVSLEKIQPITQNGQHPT

[5] = molecular target: T3, Alpha-2A adrenergic receptor (Homo sapiens, UniProt P08913)
T3 sequence (P08913 whole entry): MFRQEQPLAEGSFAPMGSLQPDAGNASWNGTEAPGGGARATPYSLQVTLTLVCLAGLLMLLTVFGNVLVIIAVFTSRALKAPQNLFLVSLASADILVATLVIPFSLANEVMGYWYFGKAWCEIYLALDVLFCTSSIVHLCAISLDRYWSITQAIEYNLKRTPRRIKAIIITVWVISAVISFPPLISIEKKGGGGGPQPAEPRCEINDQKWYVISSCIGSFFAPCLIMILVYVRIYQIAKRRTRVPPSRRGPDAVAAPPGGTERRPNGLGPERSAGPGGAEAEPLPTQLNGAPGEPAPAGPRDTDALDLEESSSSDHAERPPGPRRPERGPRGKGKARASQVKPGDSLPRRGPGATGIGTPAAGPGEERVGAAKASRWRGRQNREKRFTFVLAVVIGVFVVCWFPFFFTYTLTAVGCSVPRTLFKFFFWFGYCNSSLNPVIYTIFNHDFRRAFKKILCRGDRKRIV

[6] = molecular target: T4, Alpha-1A adrenergic receptor (Homo sapiens, UniProt P35348); format: functional, cell-based
T4 sequence (P35348 whole entry): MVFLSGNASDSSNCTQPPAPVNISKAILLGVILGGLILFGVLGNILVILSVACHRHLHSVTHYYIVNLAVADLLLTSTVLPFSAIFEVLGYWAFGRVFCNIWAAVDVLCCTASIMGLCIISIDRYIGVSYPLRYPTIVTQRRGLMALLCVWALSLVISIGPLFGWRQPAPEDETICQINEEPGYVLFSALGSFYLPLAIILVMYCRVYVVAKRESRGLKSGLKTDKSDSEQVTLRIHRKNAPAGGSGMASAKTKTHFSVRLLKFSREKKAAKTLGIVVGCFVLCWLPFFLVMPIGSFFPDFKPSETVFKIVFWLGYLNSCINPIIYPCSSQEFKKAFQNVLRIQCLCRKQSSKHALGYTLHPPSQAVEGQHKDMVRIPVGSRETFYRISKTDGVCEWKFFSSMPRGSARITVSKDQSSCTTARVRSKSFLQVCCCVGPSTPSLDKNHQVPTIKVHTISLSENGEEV

Mu-type opioid receptor = Mu-type opioid receptor (Homo sapiens, UniProt P35372)
Sequence of Mu-type opioid receptor (P35372 whole entry): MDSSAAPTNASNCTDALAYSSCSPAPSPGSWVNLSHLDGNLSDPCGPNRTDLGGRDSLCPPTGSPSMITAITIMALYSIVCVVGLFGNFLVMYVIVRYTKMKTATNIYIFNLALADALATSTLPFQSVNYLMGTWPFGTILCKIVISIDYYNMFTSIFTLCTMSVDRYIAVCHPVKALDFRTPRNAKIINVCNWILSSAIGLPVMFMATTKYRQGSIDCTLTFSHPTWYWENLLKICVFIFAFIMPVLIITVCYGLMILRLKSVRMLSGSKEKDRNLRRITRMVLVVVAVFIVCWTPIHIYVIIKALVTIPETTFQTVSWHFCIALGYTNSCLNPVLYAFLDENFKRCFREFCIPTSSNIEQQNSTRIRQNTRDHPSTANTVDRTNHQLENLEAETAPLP

[7] = molecular target: Voltage-gated inwardly rectifying potassium channel KCNH2 (Homo sapiens, UniProt Q12809); format: functional; conditions: read-out: AC50
Sequence of Voltage-gated inwardly rectifying potassium channel KCNH2 (Q12809 whole entry): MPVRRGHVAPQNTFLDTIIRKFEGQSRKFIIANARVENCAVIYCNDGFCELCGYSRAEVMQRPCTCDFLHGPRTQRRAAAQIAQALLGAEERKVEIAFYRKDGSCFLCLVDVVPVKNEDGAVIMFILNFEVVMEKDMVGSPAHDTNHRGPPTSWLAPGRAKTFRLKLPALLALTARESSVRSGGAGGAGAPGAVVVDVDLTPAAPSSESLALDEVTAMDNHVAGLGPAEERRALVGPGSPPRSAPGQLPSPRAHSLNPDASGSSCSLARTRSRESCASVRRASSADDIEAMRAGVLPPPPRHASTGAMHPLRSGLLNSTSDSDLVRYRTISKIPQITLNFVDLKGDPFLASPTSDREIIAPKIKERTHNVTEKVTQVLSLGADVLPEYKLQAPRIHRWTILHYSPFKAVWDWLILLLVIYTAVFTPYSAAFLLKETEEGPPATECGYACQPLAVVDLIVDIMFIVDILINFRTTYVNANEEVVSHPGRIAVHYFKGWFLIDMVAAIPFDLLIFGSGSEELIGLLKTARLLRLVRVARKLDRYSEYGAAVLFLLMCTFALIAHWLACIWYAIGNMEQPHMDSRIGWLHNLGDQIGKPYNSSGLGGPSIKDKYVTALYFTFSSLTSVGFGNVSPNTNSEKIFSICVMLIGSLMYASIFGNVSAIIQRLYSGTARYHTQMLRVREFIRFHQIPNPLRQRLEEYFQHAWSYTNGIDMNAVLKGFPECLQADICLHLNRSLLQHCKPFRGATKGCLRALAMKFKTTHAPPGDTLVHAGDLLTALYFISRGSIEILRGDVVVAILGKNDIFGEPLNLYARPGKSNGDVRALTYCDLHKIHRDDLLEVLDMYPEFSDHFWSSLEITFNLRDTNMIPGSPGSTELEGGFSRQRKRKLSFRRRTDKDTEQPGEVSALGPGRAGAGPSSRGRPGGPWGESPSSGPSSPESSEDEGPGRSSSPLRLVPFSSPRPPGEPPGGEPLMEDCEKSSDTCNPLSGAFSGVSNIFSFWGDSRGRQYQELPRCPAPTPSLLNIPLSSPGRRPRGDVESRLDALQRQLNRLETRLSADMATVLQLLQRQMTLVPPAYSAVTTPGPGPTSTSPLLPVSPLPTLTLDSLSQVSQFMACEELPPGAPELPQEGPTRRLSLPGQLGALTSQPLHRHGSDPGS

[8] = molecular target: 5-hydroxytryptamine receptor 2B (Homo sapiens, UniProt P41595); format: functional, cell-based
Sequence of 5-hydroxytryptamine receptor 2B (P41595 whole entry): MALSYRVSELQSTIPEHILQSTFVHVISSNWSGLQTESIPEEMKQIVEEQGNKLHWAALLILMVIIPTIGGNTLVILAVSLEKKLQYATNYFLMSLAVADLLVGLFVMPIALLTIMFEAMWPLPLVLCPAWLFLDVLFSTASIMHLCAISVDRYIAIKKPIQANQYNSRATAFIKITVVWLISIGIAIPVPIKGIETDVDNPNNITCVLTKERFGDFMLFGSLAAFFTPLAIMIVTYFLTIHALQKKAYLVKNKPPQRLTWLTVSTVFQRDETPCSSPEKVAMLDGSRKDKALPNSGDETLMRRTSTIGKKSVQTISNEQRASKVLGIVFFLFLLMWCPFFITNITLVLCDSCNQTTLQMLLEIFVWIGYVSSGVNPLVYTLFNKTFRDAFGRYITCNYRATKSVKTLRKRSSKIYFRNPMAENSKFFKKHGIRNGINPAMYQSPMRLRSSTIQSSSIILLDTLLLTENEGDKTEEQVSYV
Further: assay procedure not described here.

Sequence of Sodium-dependent noradrenaline transporter (P23975 whole entry): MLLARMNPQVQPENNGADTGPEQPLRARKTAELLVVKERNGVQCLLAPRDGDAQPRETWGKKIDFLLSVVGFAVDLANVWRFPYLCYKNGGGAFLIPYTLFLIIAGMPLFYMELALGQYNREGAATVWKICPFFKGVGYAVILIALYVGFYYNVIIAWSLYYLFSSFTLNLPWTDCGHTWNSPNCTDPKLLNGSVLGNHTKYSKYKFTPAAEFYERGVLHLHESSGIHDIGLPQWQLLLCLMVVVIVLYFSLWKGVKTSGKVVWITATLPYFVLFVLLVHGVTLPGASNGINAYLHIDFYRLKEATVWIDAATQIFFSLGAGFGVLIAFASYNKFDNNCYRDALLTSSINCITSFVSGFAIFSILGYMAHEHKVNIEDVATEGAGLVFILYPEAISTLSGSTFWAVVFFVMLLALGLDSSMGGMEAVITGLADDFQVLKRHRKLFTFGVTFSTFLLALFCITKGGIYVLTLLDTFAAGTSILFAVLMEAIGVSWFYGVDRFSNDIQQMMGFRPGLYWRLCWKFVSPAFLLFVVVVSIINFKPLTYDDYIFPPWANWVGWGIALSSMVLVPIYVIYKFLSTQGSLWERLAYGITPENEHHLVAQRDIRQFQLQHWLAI
Sequence of Prostaglandin G/H synthase 1 (P23219 whole entry): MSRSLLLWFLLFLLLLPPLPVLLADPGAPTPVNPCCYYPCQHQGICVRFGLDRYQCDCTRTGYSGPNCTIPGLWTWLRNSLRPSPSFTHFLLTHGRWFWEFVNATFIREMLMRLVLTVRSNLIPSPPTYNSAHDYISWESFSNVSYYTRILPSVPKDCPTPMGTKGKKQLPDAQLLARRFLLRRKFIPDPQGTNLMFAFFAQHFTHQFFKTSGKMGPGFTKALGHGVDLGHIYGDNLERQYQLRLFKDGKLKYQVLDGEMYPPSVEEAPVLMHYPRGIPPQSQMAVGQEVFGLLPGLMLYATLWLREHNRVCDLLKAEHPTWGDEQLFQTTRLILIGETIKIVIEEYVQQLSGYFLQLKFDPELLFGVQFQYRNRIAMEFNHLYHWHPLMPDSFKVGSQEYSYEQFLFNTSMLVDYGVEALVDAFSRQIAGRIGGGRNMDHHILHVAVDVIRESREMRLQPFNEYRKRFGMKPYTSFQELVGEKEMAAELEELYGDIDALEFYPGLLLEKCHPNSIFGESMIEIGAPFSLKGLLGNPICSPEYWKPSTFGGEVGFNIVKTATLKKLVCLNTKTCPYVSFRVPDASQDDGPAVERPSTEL

| SMILES | AC50 [1] [µM] | AC50 [2] [µM] | AC50 [3] [µM] | AC50 (Thromboxane A2 receptor) [µM] | AC50 (Histamine H3 receptor) [µM] | AC50 (Prothrombin) [µM] | AC50 [4] [µM] | AC50 (D(1A) dopamine receptor) [µM] | AC50 [5] [µM] | AC50 [6] [µM] | AC50 (Mu-type opioid receptor) [µM] | AC50 [7] [µM] | AC50 [8] [µM] |
| --- | --- | --- | --- | --- | --- | --- | --- | --- | --- | --- | --- | --- | --- |
| CC(C1=C(CCN(C)C)Cc2ccccc21)c1ccccn1 (stereo unspecified) | 11.9 | 19.4 | > 30 | > 30 | 13.2 | > 30 | > 30 | 6.52 | 15.1 | > 30 | 7.04 | 2.7 | > 30 |
| C[C@]12CC[C@H](O)CC1=CC[C@@H]1[C@@H]2CC[C@]2(C)C(c3cccnc3)=CC[C@@H]12 [ABIRATERONE] |  |  |  |  |  |  |  |  |  |  |  | > 30 |  |
| CC(=O)OCC[N+](C)(C)C [ACETYLCHOLINE] | > 30 | > 30 | > 30 | 0.34 | > 30 | > 30 | > 30 | > 30 | > 30 | > 30 | > 30 | > 30 | > 30 |
| C[C@H](N)C(=O)O [ALANINE] | > 30 | > 30 | > 30 | > 30 | > 30 | > 30 | > 30 | > 30 | > 30 | > 30 | > 30 | > 30 | > 30 |
| O=C1c2c(O)cccc2Cc2cccc(O)c21 [ANTHRALIN] | > 3 | 14 | > 30 | > 30 | 28.9 | > 30 | > 3 | > 30 | > 30 | > 30 | > 30 | > 1 | > 30 |
| CN(C)C(=O)Oc1cc(OC(=O)N(C)C)cc(C(O)CNC(C)(C)C)c1 (stereo unspecified) [BAMBUTEROL] |  |  |  |  |  |  |  |  |  |  |  | 16 |  |
| C[C@@H](O)[C@H]1C(=O)N2C(C(=O)[O-])=C(SC3Cn4cnc[n+]4C3)[C@H](C)[C@H]12 (stereo partly specified) [BIAPENEM] | > 30 | > 30 | > 30 | > 30 | > 30 | > 30 | > 30 | > 30 | > 30 | > 30 | > 30 | > 30 | > 30 |
| CCCCOc1ccc(CC(=O)NO)cc1 [BUFEXAMAC] | > 30 | > 30 | > 30 | > 30 | > 30 | > 30 | > 30 | > 30 | > 30 | > 30 | > 30 | > 30 | > 30 |
| NS(=O)(=O)c1cc(C2(O)NC(=O)c3ccccc32)ccc1Cl (stereo unspecified) [CHLORTHALIDONE] |  |  |  |  |  |  |  |  |  |  |  | > 30 |  |
| Oc1c(I)cc(Cl)c2cccnc12 [CLIOQUINOL] | 2.79 | > 30 | > 30 | > 30 | > 30 | > 30 | > 30 | > 30 | > 30 |  | > 30 | > 30 | > 30 |
| C[C@@H]1CCC[C@H](C)N1NC(=O)c1ccc(Cl)c(S(N)(=O)=O)c1 [CLOPAMIDE] |  |  |  |  |  |  |  |  |  |  |  | > 30 |  |
| COc1ccc2c(c1)[C@]13CCCC[C@@H]1[C@H](C2)N(C)CC3 [DEXTROMETHORPHAN] |  |  |  |  |  |  |  |  |  |  |  | 21.1 |  |
| Cc1onc(-c2c(Cl)cccc2Cl)c1C(=O)N[C@@H]1C(=O)N2[C@@H]1SC(C)(C)[C@@H]2C(=O)O [DICLOXACILLIN] | > 30 | > 30 | > 30 | > 30 | > 30 | > 30 | > 30 | > 30 | > 30 | > 30 | > 30 | > 30 | > 30 |
| O=c1oc2ccccc2c(O)c1Cc1c(O)c2ccccc2oc1=O [DICUMAROL] |  |  |  |  |  |  |  |  |  |  |  | > 30 |  |
| O=C(O)CSCC(=O)NC1CCSC1=O (stereo unspecified) [ERDOSTEINE] |  |  |  |  |  |  |  |  |  |  |  | > 30 |  |
| CCCCC/C=C\C/C=C\C/C=C\CCCCC(=O)O [GAMOLENIC ACID] | > 30 | 11.6 | > 30 | > 30 | > 30 | > 30 | > 30 | > 30 | > 30 | > 30 | > 30 | > 30 | > 30 |
| CC(N)CCCC(C)(C)O (stereo unspecified) [HEPTAMINOL] | > 30 | > 30 | > 30 | > 30 | > 30 | > 30 | > 30 | > 30 | > 30 | > 30 | > 30 |  | > 30 |
| COc1cccc(N(C)C(=S)Oc2ccc3c(c2)CCCC3)n1 [LIRANAFTATE] |  |  |  |  |  |  |  |  |  |  |  | > 30 |  |
| C#C[C@]1(O)CC[C@H]2[C@@H]3CCc4cc(OC)ccc4[C@H]3CC[C@@]21C [MESTRANOL] |  |  |  |  |  |  |  |  |  |  |  | > 30 |  |
| CC[N+](C)(CC)CCOC(=O)C1c2ccccc2Oc2ccccc21 [METHANTHELINE] | > 30 | > 30 | > 30 | > 30 | > 30 | > 30 | > 30 | > 30 | > 30 | > 30 | > 30 | 11 | > 30 |
| N=C(N)c1ccc2cc(OC(=O)c3ccc(N=C(N)N)cc3)ccc2c1 [NAFAMOSTAT] |  |  |  |  |  |  |  |  |  |  |  | 3.3 |  |
| CCN(CC)CCOC(=O)C(Cc1cccc2ccccc12)CC1CCCO1 (stereo unspecified) [NAFRONYL] | > 30 | > 30 | > 30 | > 30 | > 30 | > 30 | > 30 | 23.5 | > 30 | > 30 | 7.16 | 6.9 | > 30 |
| O=C(O)c1cc(O)c2c3nc4ccccc4oc-3cc(=O)c2n1 [PIRENOXINE] |  |  |  |  |  |  |  |  |  |  |  | > 30 |  |
| NS(=O)(=O)c1cc(C(=O)O)cc(N2CCCC2)c1Oc1ccccc1 [PIRETANIDE] |  |  |  |  |  |  |  |  |  |  |  | > 30 |  |
| CNCCCC1c2ccccc2C=Cc2ccccc21 [PROTRIPTYLINE] |  |  |  |  |  |  |  |  |  |  |  | 1 |  |
| CC(C)=CCOc1ccc(/C=C/C(=O)c2ccc(OCC=C(C)C)cc2OCC(=O)O)cc1 [SOFALCONE] |  |  |  |  |  |  |  |  |  |  |  | > 30 |  |
| O=C(CCCN1CCC2(CC1)C(=O)NCN2c1ccccc1)c1ccc(F)cc1 [SPIPERONE] |  |  |  |  |  |  |  |  |  |  |  | 0.22 |  |
| CN(C)c1cc(NC(=O)CNC(C)(C)C)c(O)c2c1C[C@H]1C[C@H]3[C@H](N(C)C)C(O)=C(C(N)=O)C(=O)[C@@]3(O)C(O)=C1C2=O [TIGECYCLINE] |  |  |  |  |  |  |  |  |  |  |  | > 30 |  |
| OCCN1CCN(CC/C=C2/c3ccccc3Sc3ccc(Cl)cc32)CC1 [ZUCLOPENTHIXOL] |  |  |  |  |  |  |  |  |  |  |  | 0.9 |  |
